In patent EP0070133B1, “Secondary phenylethanol amines, processes for their preparation and their pharmaceutical application” (priority 1981, dated 1983):
Structures can show the parent of a compound that is named as a salt. Where two headings read alike, the source gives them in different places.

Key:
Female CFLP mice [1] = assay: Anti-hyperglycaemic activity: subcutaneous glucose load in fasted mice, area under blood glucose curve; format: in vivo; conditions: glucose 1 g/kg sc, 2 hour period, vs water control
Description: Female CFLP mice, each weighing approximately 25 g, were fasted for 24 hours prior to the study. The compounds under study were administered orally as an aqueous solution to each of 6 mice. 6 mice were given water as a control. 30 minutes later a blood sample (20 µl) was obtained from the tail for the analysis of blood glucose. Immediately after taking this blood sample, glucose (1 g/kg body weight) was administered subcutaneously to each mouse. Blood samples were then obtained from each mouse at 30 minute intervals for 120 minutes.
Compounds that produced a significant (P<0.05) reduction of blood glucose, compared with control mice given water, at any time interval, were considered active. The area under the blood glucose curve over the 2 hour period after the administration of the glucose was calculated for each compound and compared with the value for control animals.

Female CFLP mice [2] = assay: Effect on energy expenditure and food intake of mice; format: in vivo; conditions: Mus musculus, po, 21 h
Description: Female CFLP mice each weighing approximately 24 g, were given food and water ad lib before and during the experiment. The compounds were dissolved in water by addition of one mole of hydrochloric acid per mole of compound and these solutions were administered orally to each of 12 mice. A further 12 mice were dosed orally with water. The mice were placed in boxes through which air was drawn and the oxygen content of the air leaving the boxes was measured. […] The food intake of the mice was measured over this same period of 21 hours. The results are expressed as a percentage of the mean food intake or rate of energy expenditure of the mice dosed with water.

[3] = test system: platelet aggregation in human whole blood; assay: Collagen-induced platelet aggregation in human whole blood in vitro; format: cell-based; conditions: Final Concentration in Whole Blood 100 μM; collagen EC50 in presence of compound divided by control EC50
Description: Collagen-induced platelet aggregation in human whole blood in vitro.
Collagen added to stirred citrated blood causes platelet aggregation. As the platelets aggregate, the concentration of single platelets falls. […] Inhibitors of aggregation, such as aspirin and dipyridamole, reduce the response to collagen.
Collagen (Hormon-Chemie, Munich) or 154 mM NaCl (control) was added to each aliquot of blood stirred at 1100 rpm in an aggregometer at 37° after 3 mins pre-incubation with compound or appropriate solvent. Aggregates were fixed by addition of 0.5 vol 4.5% formaldehyde or 0.05 vol phosphate-buffered glutaraldehyde. Single platelets were counted electronically. Responses, expressed as per cent fall in platelet count, were obtained to a range of collagen concentrations. The concentration producing 50% maximal effect (EC50) was estimated from log10 concentration-response curves. Dose-ratios were calculated by dividing the EC50 obtained in the presence of compound under test by the control EC50.

rat ear = assay: Anti-inflammatory activity: croton oil induced inflammation of the rat ear; format: in vivo; conditions: 1.35 mg/rat ear, topical in 1% croton oil in tetrahydrofuran, ear weight after 6 hours; active = significant (5% level) reduction
Description: The method used is based on that described by G. Tonelli eta/ (Endocrinology, 77, 625-634, 1965). An inflammation is induced in the rat ear by the application of 50 µl of a 1% solution of croton oil in tetrahydrofuran, test compounds being dissolved in the irritant vehicle. After 6 hours the inflammation is assessed by killing the animals and weighing the ears. Topical anti-inflammatory activity of a compound is generally considered to be shown when a significant (5% level) reduction in ear weight is seen compared to non-drug treated control.

Rat hearts = assay: Cardiac activity: rat hearts perfused by the Langendorff procedure
Description: Rat hearts were perfused by the Langendorff procedure as follows:- • Hearts were dissected free within 30 seconds of death and reverse perfused via the aorta and coronary vessels with Krebs-Ringer bicarbonate solution (pH 7.4, 37°C) gassed with 95% oxygen:5% carbon dioxide at a flow rate between 8-12 cm^3/minute. Responses were observed after injection of drug dissolved in isotonic saline into the perfusion media.
Results are expressed as a percentage of the maximum response due to salbutamol.

genetically obese mice = assay: Anti-obesity activity: carcass composition after 28 days of daily dosing; format: in vivo
Description: The compounds were administered by oral gavage in water or carboxymethyl-cellulose suspension to genetically obese mice daily for 28 days. At the end of the time the carcass composition was determined. The results obtained were as follows:-

[4] = read-out: Mean Energy Expenditure (%)
[5] = Rattus norvegicus, read-out: Heart Rate
[6] = Rattus norvegicus, read-out: Heart Tension
[7] = 10 μg added to perfusate, perfused rat heart, read-out: Heart Rate
[8] = 10 μg added to perfusate, perfused rat heart, read-out: Heart Tension
[9] = 30 μg added to perfusate, perfused rat heart, read-out: Heart Rate
[10] = 30 μg added to perfusate, perfused rat heart, read-out: Heart Tension

SMILES: CNCCOc1ccc(C[C@@H](C)NC[C@H](O)c2cccc(C(F)(F)F)c2)cc1 [Example 24, N-[2-(4-(2-Methylaminoethoxy)phenyl)-1-methylethyl]-2-hydroxy-2-(3-trifluoromethylphenyl)ethanamine dihydrochloride (RR,SS) diastereoisomer]
- Reduction in area under Blood glucose curve (%) (Female CFLP mice [1]; 1 μ moles/kg po): 47%
- response vs control in vivo at 6.6 mg/kg (Female CFLP mice [2]; [4]): 139%
- response vs control in vivo at 6.6 mg/kg (Female CFLP mice [2]; read-out: Mean Food Intake (%)): 102%
- Dose-Ratio [3]: 5.9
- Activity (rat ear): Active

SMILES: Br.Br.CNCCOc1ccc(CC(C)NCC(O)c2cccc(Br)c2)cc1 (stereo not shown) [Example 8, N-[2-(4-(2-Methylaminoethoxy)phenyl)-1-methylethyl]-2-hydroxy-2-(3-bromophenyl)ethanamine dihydrobromide]
- Reduction in area under Blood glucose curve (%) (Female CFLP mice [1]; 1 μ moles/kg po): 51%
- response vs control in vivo at 31.6 mg/kg (Female CFLP mice [2]; [4]): 135%
- response vs control in vivo at 31.6 mg/kg (Female CFLP mice [2]; read-out: Mean Food Intake (%)): 97%
- Emax at 0.01 mg (Rat hearts; [5]): 73%
- Emax at 0.01 mg (Rat hearts; [6]): 20%
- g Lipid/Mouse Treated (genetically obese mice; 15.8 mg/kg p.o. daily for 28 days, Control 19.89): 17.91 g Lipid/Mouse
- Dose-Ratio [3]: 4.8

SMILES: CNCCOc1ccc(CC(C)NCC(O)c2cccc(F)c2)cc1 (stereo not shown) [Example 9, N-[2-(4-(2-Methylaminoethoxy)phenyl-1-methylethyl]-2-hydroxy-2-(3-fluorophenyl)ethanaminedihydrobromide]
- Reduction in area under Blood glucose curve (%) (Female CFLP mice [1]; 1 μ moles/kg po): 39%
- response vs control in vivo at 28.3 mg/kg (Female CFLP mice [2]; [4]): 129%
- response vs control in vivo at 28.3 mg/kg (Female CFLP mice [2]; read-out: Mean Food Intake (%)): 109%
- Emax at 0.01 mg (Rat hearts; [7]): 73%
- Emax at 0.01 mg (Rat hearts; [8]): 53%

SMILES: CC(=O)NCCOc1ccc(CC(C)NCC(O)c2cccc(C(F)(F)F)c2)cc1 (stereo not shown) [Example 21, N-[2-(4-(2-Acetylaminoethoxy)phenyl)-1-methylethyl]-2-hydroxy-2-(3-trifluoromethylphenyl)ethanamine]
- Reduction in area under Blood glucose curve (%) (Female CFLP mice [1]; 2.5 μ moles/kg po): 44%
- response vs control in vivo at 23.6 mg/kg (Female CFLP mice [2]; [4]): 119%
- response vs control in vivo at 23.6 mg/kg (Female CFLP mice [2]; read-out: Mean Food Intake (%)): 102%
- Emax at 0.03 mg (Rat hearts; [9]): 22%
- Emax at 0.03 mg (Rat hearts; [10]): 24%

SMILES: CNCCOc1ccc(CC(C)NCC(O)c2ccccc2)cc1 (stereo not shown) [Example 10, N-[2-(4-(2-Methylaminoethoxy)phenyl-1-methylethyl]-2-hydroxy-2-phenylethanaminedihydrobromide]
- Reduction in area under Blood glucose curve (%) (Female CFLP mice [1]; 1 μ moles/kg po): 30%
- response vs control in vivo at 27.3 mg/kg (Female CFLP mice [2]; [4]): 118%
- response vs control in vivo at 27.3 mg/kg (Female CFLP mice [2]; read-out: Mean Food Intake (%)): 89%
- Emax at 0.01 mg (Rat hearts; [7]): 14%
- Emax at 0.01 mg (Rat hearts; [8]): 33%

SMILES: CC(Cc1ccc(OCCN2CCCCC2)cc1)NCC(O)c1cccc(Cl)c1 (stereo not shown) [Example 14, N-[2-(4-(2-(1-Piperidine)ethoxy)phenyl)-1-methylethyl]-2-hydroxy-2-(3-chlorophenyl)ethanamine dihydrochloride]
- Reduction in area under Blood glucose curve (%) (Female CFLP mice [1]; 1 μ moles/kg po): 68%
- response vs control in vivo at 23.9 mg/kg (Female CFLP mice [2]; [4]): 141%
- response vs control in vivo at 23.9 mg/kg (Female CFLP mice [2]; read-out: Mean Food Intake (%)): 111%
- Emax at 0.03 mg (Rat hearts; [9]): 0%
- Emax at 0.03 mg (Rat hearts; [10]): 0%
- g Lipid/Mouse Treated (genetically obese mice; 3.61 mg/kg p.o. daily for 28 days, Control 22.90): 19.83 g Lipid/Mouse

SMILES: Br.Br.CNCCOc1ccc(CC(C)NCC(O)c2ccccc2F)cc1 (stereo not shown) [Example 7, N-[2-(4-(2-Methylaminoethoxy)phenyl)-1-methylethyl]-2-hydroxy-2-(2-fluorophenyl)ethanamine dihydrobromide]
- Reduction in area under Blood glucose curve (%) (Female CFLP mice [1]; 1 μ moles/kg po): 33%
- response vs control in vivo at 28.3 mg/kg (Female CFLP mice [2]; [4]): 125%
- response vs control in vivo at 28.3 mg/kg (Female CFLP mice [2]; read-out: Mean Food Intake (%)): 109%
- Emax at 0.01 mg (Rat hearts; [5]): 73%
- Emax at 0.01 mg (Rat hearts; [6]): 18%

SMILES: CC(Cc1ccc(OCCN(C)C)cc1)NCC(O)c1cccc(C(F)(F)F)c1.Cl.Cl (stereo not shown) [Example 2, N-[2-(4-(2-Dimethylaminoethoxy)phenyl)-1-methylethyl]-2-hydroxy-2-(3-trifluoromethylphenyl)ethanamine dihydrochloride]
- Reduction in area under Blood glucose curve (%) (Female CFLP mice [1]; 5 μ moles/kg po): 49%
- response vs control in vivo at 26.9 mg/kg (Female CFLP mice [2]; [4]): 127%
- response vs control in vivo at 26.9 mg/kg (Female CFLP mice [2]; read-out: Mean Food Intake (%)): 98%
- Emax at 0.01 mg (Rat hearts; [5]): 0%
- Emax at 0.01 mg (Rat hearts; [6]): 0%

SMILES: CNCCOc1ccc(CC(C)NCC(O)c2cccc(C(F)(F)F)c2)cc1 (stereo not shown) [Example 1, N-[2-(4-(2-Methylaminoethoxy)phenyl)-1-methylethyll-2-hydroxy-2-(3-trifluoromethylphenyl)ethanaminedihydrochloride]
- Reduction in area under Blood glucose curve (%) (Female CFLP mice [1]; 1 μ moles/kg po): 33%
- response vs control in vivo at 26.1 mg/kg (Female CFLP mice [2]; [4]): 129%
- response vs control in vivo at 26.1 mg/kg (Female CFLP mice [2]; read-out: Mean Food Intake (%)): 98%
- Emax at 0.01 mg (Rat hearts; [7]): 0%
- Emax at 0.01 mg (Rat hearts; [8]): 7%

SMILES: CNCCOc1ccc(CC(C)NCC(O)c2cccc(Cl)c2F)cc1.Cl.Cl (stereo not shown) [Example 11, N-[2-(4-(2-Methylaminoethoxy)phenyl)-1-methylethyl]-2-hydroxy-2-(2-fluoro-3-chlorophenyl)ethanamine dihydrochloride]
- Reduction in area under Blood glucose curve (%) (Female CFLP mice [1]; 1 μ moles/kg po): 64%
- response vs control in vivo at 25.3 mg/kg (Female CFLP mice [2]; [4]): 148%
- response vs control in vivo at 25.3 mg/kg (Female CFLP mice [2]; read-out: Mean Food Intake (%)): 79%
- Emax at 0.01 mg (Rat hearts; [5]): 45%
- Emax at 0.01 mg (Rat hearts; [6]): 60%

SMILES: CCOC(=O)NCCOc1ccc(CC(C)NCC(O)c2cccc(C(F)(F)F)c2)cc1 (stereo not shown) [Example 20, N-[2-(4-(2-Ethoxycarbonylaminoethoxy)phenyl)-1-methylethyl]-2-hydroxy-2-(3-trifluoromethylphenyl)-ethanamine]
- Reduction in area under Blood glucose curve (%) (Female CFLP mice [1]; 2.5 μ moles/kg po): 36%
- response vs control in vivo at 25.3 mg/kg (Female CFLP mice [2]; [4]): 115%
- response vs control in vivo at 25.3 mg/kg (Female CFLP mice [2]; read-out: Mean Food Intake (%)): 86%
- Emax at 0.03 mg (Rat hearts; [9]): 12%
- Emax at 0.03 mg (Rat hearts; [10]): 0%

SMILES: CC(Cc1ccc(OCCNS(C)(=O)=O)cc1)NCC(O)c1cccc(C(F)(F)F)c1 (stereo not shown) [Example 3, N-[2-(4-(2-Methylsulphonylaminoethoxy)phenyl)-1-methylethyl]-2-hydroxy-2-(3-trifluoromethylphenyl)ethanamine]
- Reduction in area under Blood glucose curve (%) (Female CFLP mice [1]; 1 μ moles/kg po): 56%
- response vs control in vivo at 25.6 mg/kg (Female CFLP mice [2]; [4]): 125%
- response vs control in vivo at 25.6 mg/kg (Female CFLP mice [2]; read-out: Mean Food Intake (%)): 83%
- Emax at 0.01 mg (Rat hearts; [7]): 38%
- Emax at 0.01 mg (Rat hearts; [8]): 4%

SMILES: CNCCOc1ccc(CC(C)NCC(O)c2cccc(Cl)c2)cc1.Cl.Cl (stereo not shown) [Example 22, N-[2-(4-(2-Methylaminoethoxy)phenyl)-1-methylethyl]-2-hydroxy-2-(3-chlorophenyl)ethanamine dihydrochloride]
- Reduction in area under Blood glucose curve (%) (Female CFLP mice [1]; 1 μ moles/kg po): 43%
- response vs control in vivo at 24.3 mg/kg (Female CFLP mice [2]; [4]): 124%
- response vs control in vivo at 24.3 mg/kg (Female CFLP mice [2]; read-out: Mean Food Intake (%)): 84%
- Emax at 0.03 mg (Rat hearts; [5]): 57%
- Emax at 0.03 mg (Rat hearts; [6]): 22%

SMILES: CC(Cc1ccc(OCCNCc2ccccc2)cc1)NCC(O)c1cccc(C(F)(F)F)c1 (stereo not shown) [Example 18, N-[2-(4-(2-Benzylaminoethoxy)phenyl)-1-methylethyl]-2-hydroxy-2-(3-trifluoromethylphenyl)ethanamine]
- Reduction in area under Blood glucose curve (%) (Female CFLP mice [1]; 2.5 μ moles/kg po): 50%
- response vs control in vivo at 26.3 mg/kg (Female CFLP mice [2]; [4]): 131%
- response vs control in vivo at 26.3 mg/kg (Female CFLP mice [2]; read-out: Mean Food Intake (%)): 80%
- Emax at 0.03 mg (Rat hearts; [9]): 12%
- Emax at 0.03 mg (Rat hearts; [10]): 7%

SMILES: CNCCOc1ccc(CC(C)NCC(O)c2cccc(C(F)(F)F)c2)cc1 (stereo not shown) [Example 1a, N-[2-(4-(2-Methylaminoethoxy)phenyl)-1-methylethyll-2-hydroxy-2-(3-trifluoromethylphenyl)ethanaminedihydrochloride]
- response vs control in vivo at 2.61 mg/kg (Female CFLP mice [2]; [4]): 120%
- response vs control in vivo at 2.61 mg/kg (Female CFLP mice [2]; read-out: Mean Food Intake (%)): 94%
- g Lipid/Mouse Treated (genetically obese mice; 13.1 mg/kg p.o. daily for 28 days, Control 19.13): 12.54 g Lipid/Mouse
